Results reported in patent US20130296434A1, “FORMULATIONS AND METHODS FOR TREATING AMYLOIDOSIS” (Kiacta Sarl, priority 2005, published 2013).

How the values were obtained:
[1] = Pharmacokinetics of single rising oral doses of PDS and food effect in healthy male subjects; assay type: in vivo, human; conditions: for AUC(0-inf) / AUC(0-t) / Cmax / Tmax: male, po; for AUC(0-inf) / AUC(0-t) / Cmax: mean; for Tmax: median
Source text: (§1) In the following examples, terms are as defined below. The pharmacokinetic parameters were derived by non-compartmental analysis using WinNonlin® (Pharsight Corp., Mountain View, Calif., USA). • Cmax—the maximum observed plasma concentration. • Tmax—the time of occurrence of Cmax. • AUC0-t—the area under the plasma concentration versus time curve from time zero to the last sampling time at which concentrations were at or above the limit of quantification, calculated by the linear trapezoidal rule. • AUC∞—the area under the plasma concentrations versus time curve from time zero to infinity, calculated from AUC0-t+(Clast/λz), where Clast is the last observed quantifiable concentration and λz is the apparent terminal rate constant. • t1/2 the apparent terminal half-life, calculated from ln 2/λz
The safety, tolerability and pharmacokinetics of PDS following single oral administration in healthy male adult volunteers is determined. The effect of food on the pharmacokinetics of PDS is also determined. The first part of the study is a randomized, double-blind, placebo-controlled study to assess the pharmacokinetic profile of 6 single rising oral doses of PDS in healthy male subjects. The second part of this study is an open-label, two-way crossover study to investigate the effect of food on the pharmacokinetic profile of a single oral dose of PDS under fasted and fed conditions. Blood samples are collected during 36 hours following dosing. Plasma concentrations of PDS are determined using validated HPLC methods. […] The extent of systemic exposure (AUC and Cmax) to PDS increases with increasing dose. […] PDS should therefore not be given concomitantly with a high fat meal.

[2] = Pharmacokinetics of single and repeated oral doses of PDS in healthy male subjects; assay type: in vivo, human; conditions: for AUC(0-t) / Cmax / Tmax: male, po, n = 6; for AUC(0-t) / Cmax: mean; for Tmax: median
Source text: as §1
The safety, tolerability and pharmacokinetics of PDS following multiple rising oral doses in healthy male adult volunteers is determined. This is a randomized, double-blind, placebo-controlled study to assess the pharmacokinetic profile of single and repeated oral doses of PDS at 400, 800 and 1600 mg in healthy male subjects. PDS is administered as a single oral dose to healthy male subjects at 400, 800 and 1600 mg on Days 1 and 7. Following the single oral administration on Day 1, PDS is administered on Days 2, 3, 4, 5 and 6 at 400, 800 and 1600 mg four times daily, or 1600 mg three times daily. Blood samples are collected through 24 hours after the dose on Day 1, before the first and last doses on Days 2 through 6, and after 48 hours after the final dose on Day 7. Plasma concentrations of PDS are determined using validated HPLC methods. Following single and repeated oral doses of PDS maximum plasma concentrations are generally reached within 0.25 to 1 hour post-dose. The mean half-life (T1/2) ranges from 5 to 20 hours after single or multiple dosing. Accumulation after multiple dosing is consistent with the T1/2 and dosing frequency.

[3] = Pharmacokinetic profile of a single oral dose of 800 mg PDS in subjects with varying degrees of renal impairment vs healthy volunteers; assay type: in vivo; conditions: human, plasma, single oral 800 mg; for AUC(0-inf): mean, only subjects with estimable elimination rate constant; for AUC(0-t): read-out: AUC0-Tlast
Method: An open-label, non-randomized, parallel group study to assess the pharmacokinetic profile of a single oral dose of 800 mg 1,3-propanedisulfonic acid disodium salt (PDS) in subjects with varying degrees of renal impairment as compared to healthy volunteers is conducted. Blood and urine samples are collected for 24 hours following dosing. Plasma and urine concentrations in 1,3-propanedisulfonic acid are determined using validated HPLC methods. […] Consequently, a decrease in dose appears to be necessary to maintain an acceptable systemic exposure in patients with impaired renal function.

[4] = human, plasma, 100 mg, single oral 100 mg, healthy male subjects, n = 6
[5] = human, plasma, 200 mg, single oral 200 mg, healthy male subjects, n = 5
[6] = human, plasma, 400 mg, single oral 400 mg, healthy male subjects, n = 5
[7] = human, plasma, 800 mg, single oral 800 mg, healthy male subjects, n = 10
[8] = human, plasma, 1600 mg, single oral 1600 mg (rising dose part), healthy male subjects, n = 5
[9] = human, plasma, 1600 mg, single oral 1600 mg, Fasted, healthy male subjects, n = 8
[10] = human, plasma, 1600 mg, single oral 1600 mg, Fed (high-fat meal), healthy male subjects, n = 8
[11] = human, plasma, 2400 mg, single oral 2400 mg, healthy male subjects, n = 5
[12] = human, plasma, 400 mg, 400 mg q.i.d. group, Day 1 (single oral administration)
[13] = human, plasma, 400 mg, 400 mg q.i.d., Day 7 (repeated oral administration)
[14] = human, plasma, 800 mg, 800 mg q.i.d. group, Day 1 (single oral administration)
[15] = human, plasma, 800 mg, 800 mg q.i.d., Day 7 (repeated oral administration)
[16] = human, plasma, 1600 mg, 1600 mg q.i.d group, Day 1 (single oral administration)
[17] = human, plasma, 1600 mg, 1600 mg q.i.d, Day 7 (repeated oral administration)
[18] = human, plasma, 1600 mg, 1600 mg t.i.d. group, Day 1 (single oral administration)
[19] = human, plasma, 1600 mg, 1600 mg t.i.d., Day 7 (repeated oral administration)
[20] = Healthy, GFR >80 mL/min, n = 6, mean
[21] = Mild renal impairment, GFR 50-80 mL/min, n = 6, mean
[22] = Moderate renal impairment, GFR 30-50 mL/min, n = 4, mean
[23] = Severe renal impairment, GFR <30 mL/min, n = 6, mean

O=S(=O)([O-])CCCS(=O)(=O)[O-].[Na+].[Na+] [PDS, 1,3-propanedisulfonic acid, disodium salt]
half-life ([1]; human, plasma, single oral doses 100-2400 mg, healthy male subjects, range of means, read-out: mean half-life (T1/2)): 120 to 1560 min
AUC(0-inf) [1, 4]: 419 ng·h/mL
AUC(0-t) [1, 4]: 240 ng·h/mL
Cmax [1, 4]: 99.5 ng/mL
Tmax [1, 4]: 60 min
AUC(0-t) [1, 5]: 626 ng·h/mL
Cmax [1, 5]: 164 ng/mL
Tmax [1, 5]: 60 min
AUC(0-inf) [1, 6]: 2900 ng·h/mL
AUC(0-t) [1, 6]: 1880 ng·h/mL
Cmax [1, 6]: 1080 ng/mL
Tmax [1, 6]: 30 min
AUC(0-inf) [1, 7]: 4550 ng·h/mL
AUC(0-t) [1, 7]: 4840 ng·h/mL
Cmax [1, 7]: 2870 ng/mL
Tmax [1, 7]: 30 min
AUC(0-t) [1, 8]: 8410 ng·h/mL
Cmax [1, 8]: 4760 ng/mL
Tmax [1, 8]: 30 min
AUC(0-inf) [1, 9]: 12800 ng·h/mL
AUC(0-t) [1, 9]: 11500 ng·h/mL
Cmax [1, 9]: 6460 ng/mL
Tmax [1, 9]: 30 min
AUC(0-inf) [1, 10]: 6320 ng·h/mL
AUC(0-t) [1, 10]: 4010 ng·h/mL
Cmax [1, 10]: 563 ng/mL
Tmax [1, 10]: 135 min
AUC(0-inf) [1, 11]: 12900 ng·h/mL
AUC(0-t) [1, 11]: 12000 ng·h/mL
Cmax [1, 11]: 6050 ng/mL
Tmax [1, 11]: 30 min
effect of food on systemic availability ([1]; single oral 1600 mg, fed vs fasted conditions): decrease in both the rate and extent of systemic availability
dose dependence of systemic exposure (AUC and Cmax) ([1]; single oral doses 100-2400 mg, healthy male subjects): reasonably proportional to the administered dose
half-life ([2]; human, plasma, oral, after single or multiple dosing, 400, 800, 1600 mg, healthy male subjects, range of means, read-out: mean half-life (T1/2)): 300 to 1200 min
AUC(0-t) [2, 12]: 1590 ng·h/mL
Cmax [2, 12]: 496 ng/mL
Tmax [2, 12]: 60 min
AUC(0-t) [2, 13]: 10500 ng·h/mL
Cmax [2, 13]: 995 ng/mL
Tmax [2, 13]: 15 min
AUC(0-t) [2, 14]: 5180 ng·h/mL
Cmax [2, 14]: 2680 ng/mL
Tmax [2, 14]: 15 min
AUC(0-t) [2, 15]: 19900 ng·h/mL
Cmax [2, 15]: 1680 ng/mL
Tmax [2, 15]: 15 min
AUC(0-t) [2, 16]: 8300 ng·h/mL
Cmax [2, 16]: 2800 ng/mL
Tmax [2, 16]: 30 min
AUC(0-t) [2, 17]: 24500 ng·h/mL
Cmax [2, 17]: 5480 ng/mL
Tmax [2, 17]: 15 min
AUC(0-t) [2, 18]: 7090 ng·h/mL
Cmax [2, 18]: 2890 ng/mL
Tmax [2, 18]: 22.5 min
AUC(0-t) [2, 19]: 25800 ng·h/mL
Cmax [2, 19]: 4890 ng/mL
Tmax [2, 19]: 30 min
dose dependence of systemic exposure (AUC0-t and Cmax) ([2]; single and repeated oral doses 400, 800, 1600 mg, healthy male subjects): approximately proportional to the administered dose
AUC(0-inf) ([3]; Healthy, GFR >80 mL/min): 5370 ng·h/mL
Cmax [3, 20]: 1240 ng/mL
AUC(0-t) [3, 20]: 3160 ng·h/mL
Tmax ([3]; Healthy, GFR >80 mL/min, n = 6, median): 30 min
AUC(0-inf) ([3]; Mild renal impairment, GFR 50-80 mL/min): 13000 ng·h/mL
Cmax [3, 21]: 3060 ng/mL
AUC(0-t) [3, 21]: 9110 ng·h/mL
Tmax ([3]; Mild renal impairment, GFR 50-80 mL/min, n = 6, median): 30 min
AUC(0-inf) ([3]; Moderate renal impairment, GFR 30-50 mL/min): 10700 ng·h/mL
Cmax [3, 22]: 2100 ng/mL
AUC(0-t) [3, 22]: 9450 ng·h/mL
Tmax ([3]; Moderate renal impairment, GFR 30-50 mL/min, n = 4, median): 30 min
AUC(0-inf) ([3]; Severe renal impairment, GFR <30 mL/min): 43100 ng·h/mL
Cmax [3, 23]: 2210 ng/mL
AUC(0-t) [3, 23]: 29200 ng·h/mL
Tmax ([3]; Severe renal impairment, GFR <30 mL/min, n = 6, median): 150 min
